Reference: patent publication US20240002425A1, “NOVEL AMINOALKYL GLUCOSAMINIDE 4-PHOSPHATE DERIVATIVE” (DAIICHI SANKYO COMPANY, LIMITED, priority 2020, published 2024)

What was measured:
human TLR4 = human TLR4 (Homo sapiens, UniProt O00206+Q9Y6Y9); assay: Human TLR4 activating effect (HEK-Blue Human TLR4 Cells, SEAP reporter); format: cell-based; conditions: 24 hours, SEAP Protein concentration, read-out: EC50 (ng/ml) (converted)
Procedure: The human TLR4 activating effect was studied using the compounds described in Examples 1 to 17 and monophosphoryl lipid A as Comparative Example A.
Triethanolamine was dissolved at 0.5% (v/v) in injectable distilled water to prepare an aqueous triethanolamine solution. 1 mg of each test drug was dissolved in 0.98 mL of the aqueous triethanolamine solution, and pH of the solution was then adjusted to 7.2 to 7.4 by the addition of 20 μL of 1 M HCl to prepare a 1 mg/mL solution. A dilution series of the test drug was prepared using a medium [DMEM (Nacalai Tesque, Inc.), 10% FBS (Sigma-Aldrich Co. LLC), 50 U/mL penicillin-50 μg/mL streptomycin (Thermo Fisher Scientific Inc.), 1×HEK-Blue Selection (InvivoGen), and 100 μg/mL Normocin (InvivoGen)]. 2×10^5 cells/mL HEK-Blue™ Human TLR4 Cells (InvivoGen) were inoculated to each well of a 96-well microplate for tissue culture (Iwaki), then treated with the test drug, and cultured at 37° C. for 24 hours under 5% CO2. The cells thus cultured were centrifuged at 400×g at 4° C. for 3 minutes. Recombinant SEAP Protein (InvivoGen) was used for a calibration curve. After addition of 180 μL of QUANTI-Blue (InvivoGen) to each well of 96 Well TC-Treated Microplates (Corning, Inc.), 20 μL each of the cell culture supernatant and a standard diluting solution was added to each well, and the plate was left standing at 37° C. for 4 hours. After reaction, absorbance (wavelength: 655 nm) was measured using a microplate reader (PerkinElmer, Inc., EnSpire), and a SEAP Protein concentration was calculated from the calibration curve and used as an index for TLR4 agonist activity. A drug concentration that induced reaction corresponding to 50% of the maximum reaction was calculated as EC50 (ng/mL) from a linear expression using two drug concentrations between which the drug concentration that induced reaction corresponding to 50% of the maximum reaction in each experiment was positioned, and measured values thereof.

[1] = test system: various allergens (Japanese cedar pollen, mite, ragweed, timothy, peanut, milk); assay: Immunostimulatory effect on various allergens by sublingual administration (allergen-specific IgG titer); format: in vivo, mouse; conditions: allergen-sensitized mice, sublingual with allergen, up to 12 weeks; all the allergens; compared with allergen alone
Procedure: The compound described in Example 2(2e) was used to study its immunostimulatory effect on various allergens by sublingual administration.
Japanese cedar pollen antigen extracts were prepared by treating Japanese cedar pollen (Yamizo Pollen Study Group) with a solution containing 0.125 M NaHCO3 and 0.5 M NaCl for 24 hours (4° C.), and then insoluble matter was removed by filtration. The concentration of Cry j 1 contained in the extracts was measured, and the extracts were diluted into 12.5 μg/mL (10000 JAU/mL). Allergen scratch extracts (Torii Pharmaceutical Co., Ltd.) were used as mite, ragweed, timothy, peanut, and milk. Allergen sensitization was performed by intramuscularly administering the allergen (20 μL) to the mouse femoral region 1 week before the start of sublingual administration. The allergen scratch extracts of mite, ragweed, timothy, peanut, or milk were diluted 10-fold with PBS and used in allergen sensitization. Sublingual administration was started from 1 week after sensitization. […]
Each allergen was added at 25 μL/well (Japanese cedar pollen, 1 μg Cry j 1/mL; mite, ragweed, timothy, peanut, and milk, 1:1000 diluted) to a plate for ELISA, which was then left standing overnight at 4° C. […] Then, 30 μL of a TMB stop solution was added to each well, and absorbance at 450 nm was measured. […]

SARS-CoV-2 RBD = conditions: mouse, in vivo
[2] = test system: Japanese cedar pollen antigen (Cry j 1); assay: Immunostimulatory effect on Japanese cedar pollen antigen by sublingual administration (anti-Cry j 1 IgG or IgA); format: in vivo, mouse; conditions: sublingual with Japanese cedar pollen antigen
Procedure: The compound described in Example 24 was used to study its immunostimulatory effect on a Japanese cedar pollen antigen by sublingual administration.
Allergen sensitization was performed by subcutaneously administering 50 μL of Japanese cedar pollen antigen extracts (allergen scratch extracts “Torii” Japanese cedar pollen, Torii Pharmaceutical Co., Ltd.) to the mouse tail root 3 and 1 weeks before the start of sublingual administration. Blood was collected 4 days after the second sensitization, and anti-Cry j 1 IgG was measured in accordance with the subsequent section. Mice were grouped such that their measured values were evenly distributed among the groups. Sublingual administration (sublingual allergen immunotherapy model) was started from 3 days thereafter.
The antigen used was a Japanese cedar pollen antigen (5000 JAU CEDARCURE®, Torii Pharmaceutical Co., Ltd.) dissolved in 100 μL of PBS. The compound of Example 24 was dissolved in injectable water (Otsuka Pharmaceutical Co., Ltd.) to prepare a 5 mg/mL solution. The antigen and the compound of Example 24 were mixed in equal amounts immediately before administration.
Each mouse was allowed to refrain from eating and drinking from 1 hour before sublingual administration. […]
25 μL of 10 μg/mL ImmunoPure Streptavidin (Thermo Fisher Scientific Inc., Cat No. 21125) was added to each well of 96 Well Micro Plate (Corning, Inc., Cat No. 3690), which was then left standing overnight at 4° C. […] The plate was left standing at room temperature for 10 minutes, and 30 μL of TMB Stop Solution was then added to each well, followed by the measurement of absorbance at 450 nm.
Positive serum was used as a standard specimen of serum, and anti-Cry j 1 IgG or IgA contained therein was set to 1000 units/mL. […] An evaluation specimen was diluted 1000-fold with an ELISA solution and measured, and the unit value of anti-Cry j 1 IgG or IgA in the evaluation specimen was determined using the calibration curve. […]

[3] = test system: cervical lymph node immune cells; assay: Cry j 1-specific cell-mediated immunity assay (cervical lymph node cells); format: in vivo, mouse; design: IFN-7 produced by Cry j 1 stimulation / IL-4 produced by Cry j 1 stimulation: unit not given here; conditions: cervical lymph node cells after sublingual administration with Japanese cedar pollen antigen
Procedure: Cervical lymph node was collected, then pooled for each group, and ground in PBS (1% BSA). The resultant was passed through a 70 μm strainer. […] Cells were recovered with RPMI/FBS/ps, and the number of cells was prepared to 2×5×10^6 cells/mL.

[4] = test system: mast cell degranulation reaction mediated by anti-Cry j 1 IgE; assay: Suppression of mast cell degranulation by immune serum-derived IgG; format: in vivo, mouse; conditions: IgG from serum of SLIT mice, 200 ng/mL Cry j 1 stimulation; vs No-SLIT and Japanese Cedar Pollen SLIT groups (FIG. 17)
Procedure: IgG was purified from 200 μL of serum of each mouse individual of the allergen immunotherapy model in accordance with the protocol of Protein G HP spin trap (Cytiva, 28-9031-34). The solvent in the purified IgG was replaced with 50 μL of Tyrode's solution using Vivaspin 500, 10 kDa MWCO Polyethersulfone (Cytiva, 28-9322-25). Cry j 1 (2×10×200 ng/mL, 1.5 μL, Tyrode's solution) was added to the purified IgG (13.5 μL, Tyrode's solution), and the mixture was left standing at room temperature for 1 hour in the dark. The mast cells sensitized with anti-Cry j 1 IgE were treated with 10 μL of this specimen as a test substance, and the amount of the mast cell degranulation was measured (final concentration: 200 ng/mL, Cry j 1 stimulation).

human TLR4, sequence (O00206 24-839): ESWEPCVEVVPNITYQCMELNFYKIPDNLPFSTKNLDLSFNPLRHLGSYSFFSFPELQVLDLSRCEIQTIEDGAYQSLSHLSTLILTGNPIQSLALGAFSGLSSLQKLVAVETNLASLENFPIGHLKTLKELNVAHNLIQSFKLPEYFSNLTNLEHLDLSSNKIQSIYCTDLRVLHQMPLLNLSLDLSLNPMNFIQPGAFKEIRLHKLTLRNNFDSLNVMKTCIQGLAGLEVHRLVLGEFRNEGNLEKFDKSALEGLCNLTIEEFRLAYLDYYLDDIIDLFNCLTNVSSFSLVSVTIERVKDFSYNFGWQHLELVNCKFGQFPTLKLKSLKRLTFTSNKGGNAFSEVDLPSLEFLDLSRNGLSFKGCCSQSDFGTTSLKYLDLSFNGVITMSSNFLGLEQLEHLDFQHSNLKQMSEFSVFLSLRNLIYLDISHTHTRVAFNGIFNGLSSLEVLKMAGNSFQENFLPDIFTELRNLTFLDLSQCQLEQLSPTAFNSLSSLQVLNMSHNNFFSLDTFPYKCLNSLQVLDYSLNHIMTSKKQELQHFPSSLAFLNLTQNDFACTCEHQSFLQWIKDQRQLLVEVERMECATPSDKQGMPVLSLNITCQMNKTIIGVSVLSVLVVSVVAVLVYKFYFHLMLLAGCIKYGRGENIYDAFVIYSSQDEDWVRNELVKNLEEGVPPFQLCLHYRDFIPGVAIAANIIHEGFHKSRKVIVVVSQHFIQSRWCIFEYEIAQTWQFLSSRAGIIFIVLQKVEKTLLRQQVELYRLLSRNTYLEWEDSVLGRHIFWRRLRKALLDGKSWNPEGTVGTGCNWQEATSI
human TLR4, sequence (Q9Y6Y9 17-160 limits assumed): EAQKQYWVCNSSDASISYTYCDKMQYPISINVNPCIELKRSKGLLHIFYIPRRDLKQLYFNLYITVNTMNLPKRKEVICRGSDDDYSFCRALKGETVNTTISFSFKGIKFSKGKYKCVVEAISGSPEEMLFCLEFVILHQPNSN

Row | SMILES | EC50 (human TLR4) | allergen-specific IgG titer in blood [1] | anti-RBD IgA in blood (SARS-CoV-2 RBD) | anti-RBD IgA in nasal wash (SARS-CoV-2 RBD) | anti-RBD IgG in blood (SARS-CoV-2 RBD) | anti-Cry j 1 IgA in nasal wash ([2]; 5 weeks (FIG. 11)) | anti-Cry j 1 IgG in serum ([2]; vs No-SLIT and Japanese Cedar Pollen SLIT groups (FIG. 9)) | anti-Cry j 1 IgA in serum ([2]; vs No-SLIT and Japanese Cedar Pollen SLIT groups (FIG. 10)) | IL-10 produced by Cry j 1 stimulation ([3]; 44 hours culture (FIG. 12)) | IFN-7 produced by Cry j 1 stimulation ([3]; 44 hours culture (FIG. 13)) | IL-4 produced by Cry j 1 stimulation ([3]; 44 hours culture (FIG. 14)) | mast cell degranulation with IgG purified from mouse serum [4]
1 | CCCCCCCCCCC[C@H](CC(=O)N[C@@H](CO[C@@H]1O[C@H](CO[C@]2(C(=O)O)C[C@@H](O)[C@@H](O)[C@@H]([C@H](O)CO)O2)[C@@H](OP(=O)(O)O)[C@H](OC(=O)C[C@@H](CCCCCCCCCCC)OC(=O)CCCCCCCCC)[C@H]1NC(=O)C[C@@H](CCCCCCCCCCC)OC(=O)CCCCCCCCC)CC(=O)O)OC(=O)CCCCCCCCC [Example 2(2e), Ammonium (3R)-3-{[(3R)-3-(decanoyloxy)tetradecanoyl]amino}-4-({3-O-[(3R)-3-(decanoyloxy)tetradecanoyl]-2-{[(3R)-3-(decanoyloxy)tetradecanoyl]amino}-2-deoxy-6-O-(3-deoxy-α-D-manno-oct-2-ulopyranonosyl)-4-O-phosphono-β-D-glucopyranosyl}oxy)butanoate] | 0.0499 nM | markedly higher | markedly high | induced at a high level | markedly high | – | – | – | – | – | – | –
2 | CCCCCCCCCCC[C@H](CC(=O)N[C@@H](CO[C@@H]1O[C@H](CO[C@]2(C(=O)O)C[C@@H](O)[C@@H](O)[C@@H]([C@H](O)CO)O2)[C@@H](OP(=O)(O)O)[C@H](OC(=O)C[C@@H](CCCCCCCCCCC)OC(=O)CCCCCCCCC)[C@H]1NC(=O)C[C@@H](CCCCCCCCCCC)OC(=O)CCCCCCCCC)CC(=O)O)OC(=O)CCCCCCCCC.CNC[C@H](O)[C@@H](O)[C@H](O)[C@H](O)CO.CNC[C@H](O)[C@@H](O)[C@H](O)[C@H](O)CO.CNC[C@H](O)[C@@H](O)[C@H](O)[C@H](O)CO.CNC[C@H](O)[C@@H](O)[C@H](O)[C@H](O)CO [Example 24, Tetrameglumine (3R)-3-{[(3R)-3-(decanoyloxy)tetradecanoyl]amino}-4-({3-O-[(3R)-3-(decanoyloxy)tetradecanoyl]-2-{[(3R)-3-(decanoyloxy)tetradecanoyl]amino}-2-deoxy-6-O-(3-deoxy-α-D-manno-oct-2-ulopyranonosyl)-4-O-phosphono-β-D-glucopyranosyl}oxy)butanoate] | – | – | – | – | – | induced at a high level | induced at a higher level | induced at a higher level | strongly induced | ≤ 9.77 | ≤ 9.77 | suppressed
